Results from patent publication US20120065187A1 (ALCON RESEARCH, LTD, priority 2008, published 2012).
Structures can show the parent of a compound that is named as a salt. Where two headings read alike, the source gives them in different places.

Experiments:
human H1 = biological target: T1, human H1 (Homo sapiens, UniProt P35367); assay: In vitro histamine receptor cell-based assay (aequorin bioluminescence), H1 antagonism; details: CHO-K1 cells expressing human H1 and aequorin; histamine at EC80; read-out: H1 Antagonist EC50
T1 construct: host or cells: CHO-K1
T1 sequence (P35367 whole entry): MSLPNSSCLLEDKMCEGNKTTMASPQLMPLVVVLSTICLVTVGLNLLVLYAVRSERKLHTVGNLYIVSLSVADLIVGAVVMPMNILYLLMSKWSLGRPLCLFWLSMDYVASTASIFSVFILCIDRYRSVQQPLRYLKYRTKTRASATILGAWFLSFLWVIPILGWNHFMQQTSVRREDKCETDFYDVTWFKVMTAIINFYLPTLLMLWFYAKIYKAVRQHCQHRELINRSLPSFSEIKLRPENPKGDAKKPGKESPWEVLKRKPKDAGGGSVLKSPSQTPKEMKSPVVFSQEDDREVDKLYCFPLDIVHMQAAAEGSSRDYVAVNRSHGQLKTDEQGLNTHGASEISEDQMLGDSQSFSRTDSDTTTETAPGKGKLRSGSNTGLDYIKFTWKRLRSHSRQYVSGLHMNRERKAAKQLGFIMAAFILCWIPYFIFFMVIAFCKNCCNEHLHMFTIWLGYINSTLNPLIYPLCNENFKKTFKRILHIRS
Outline: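 Stable CHO-K1 lines expressing human H1 or H4 (H4 with Gα16) plus mitochondrial aequorin, loaded 4 h with 5 μM coelenterazine-h at ~21 °C. Compounds preincubated 15 min, then histamine at EC80 added; bioluminescence decrease (AUC or max–min) expressed as % of positive control (diphenhydramine for H1, JNJ7777120 for H4, 10 μM).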

human H4 = biological target: T2, human H4 (Homo sapiens, UniProt Q9H3N8); assay: In vitro histamine receptor cell-based assay (aequorin bioluminescence), H4 antagonism
T2 construct: host or cells: CHO-K1
Outline: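 CHO-K1 cells stably expressing human H4, Gα16 and mitochondrial aequorin, loaded with 5 μM coelenterazine-h, preincubated 15 min at room temperature with compound, then challenged with histamine at EC80.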

[1] = CHO-K1 cells expressing human H4, aequorin and Gα16, histamine at EC80, read-out: H4 Antagonist EC50

SMILES | EC50 (human H1) [µM] | EC50 (human H4; [1]) [µM] | EC50 (human H4) [µM]
Clc1ccc2nc(OC3CNC3)c3nncn3c2c1 [Example 72, 4-(azetidin-3-yloxy)-8-chloro-[1,2,4]triazolo[4,3-a]quinoxaline] | > 10 | > 10 | –
Cc1nc2c3cc(Cl)c(F)cc3nc(N3CCNCC3)n2n1 [Example 96, 9-Chloro-8-fluoro-2-methyl-5-(piperazin-1-yl)-[1,2,4]triazolo[1,5-c]quinazoline] | > 10 | < 10 | –
CNCCOc1nc2ccc(Cl)cc2n2cnnc12 [Example 80, 2-(8-chloro-[1,2,4]triazolo[4,3-a]quinoxalin-4-yloxy)-N-methylethanamine] | > 10 | > 10 | –
CN1CCCN(c2nc3ccc(Cl)cc3n3cnnc23)CC1 [Example 68, 8-chloro-4-(4-methyl-1,4-diazepan-1-yl)-[1,2,4]triazolo[4,3-a]quinoxaline] | > 10 | < 10 | –
CN1CCN(c2nc3ccc(C(F)(F)F)cc3c3nc(C(F)(F)F)nn23)CC1 [Example 120, 5-(4-methylpiperazin-1-yl)-2,9-bis(trifluoromethyl)-[1,2,4]triazolo[1,5-c]quinazoline] | > 10 | < 10 | –
CCc1nnc2c(N3CCN(C)CC3)nc3ccc(Cl)cc3n12 [Example 86, 8-chloro-1-ethyl-4-(4-methylpiperazin-1-yl)-[1,2,4]triazolo[4,3-a]quinoxaline] | > 10 | < 10 | –
NC1CCN(c2nc3ccc(Cl)cc3n3cnnc23)CC1 [Example 81, 1-(8-chloro-[1,2,4]triazolo[4,3-a]quinoxalin-4-yl)piperidin-4-amine] | > 10 | > 10 | –
CC(C)c1nnc2c(N3CCN(C)CC3)nc3ccc(Cl)cc3n12 [Example 87, 8-chloro-1-isopropyl-4-(4-methylpiperazin-1-yl)-[1,2,4]triazolo[4,3-a]quinoxaline] | > 10 | < 10 | –
CN1CCN(c2nc3ccc(Cl)cc3c3ncnn23)CC1 [Example 111, 9-chloro-5-(4-methylpiperazin-1-yl)-[1,2,4]triazolo[1,5-c]quinazoline] | > 10 | < 10 | –
FC(F)(F)c1ccc2c(c1)nc(N1CCNCC1)c1nccn12 [Example 183, 4-(piperazin-1-yl)-7-(trifluoromethyl)imidazo[1,2-a]quinoxaline hydrochloride] | > 10 | – | > 10
CN1CCN(c2nc3cc(Cl)c(F)cc3n3cnnc23)CC1 [Example 33, 7-chloro-8-fluoro-4-(4-methylpiperazin-1-yl)-[1,2,4]triazolo[4,3-a]quinoxaline] | > 10 | < 10 | –
Clc1ccc2nc(OC3CCNCC3)c3nncn3c2c1 [Example 74, 8-chloro-4-(piperidin-4-yloxy)-[1,2,4]triazolo[4,3-a]quinoxaline] | > 10 | > 10 | –
Cc1nc2c3cc(Cl)ccc3nc(N3CCN4CCCC4C3)n2n1 (centres unmarked) [Example 245, 9-chloro-5-(hexahydropyrrolo[1,2-a]pyrazin-2(1H)-yl)-2-methyl-[1,2,4]triazolo[1,5-c]quinazoline] | < 10 | < 10 | –
FC(F)(F)c1ccc2c(c1)nc(N1CCNCC1)c1nncn12 [Example 26, 4-(piperazin-1-yl)-7-(trifluoromethyl)-[1,2,4]triazolo[4,3-a]quinoxaline] | > 10 | > 10 | –
CCc1nc2c3cc(Cl)ccc3nc(N3CCNCC3)n2n1 [Example 115, 9-Chloro-2-ethyl-5-(piperazin-1-yl)-[1,2,4]triazolo[1,5-c]quinazoline] | > 10 | < 10 | –
CN1CCC(c2nc3ccc(Cl)cc3n3cnnc23)CC1 [Example 4, 8-Chloro-4-(1-methylpiperidin-4-yl)-[1,2,4]triazolo[4,3-a]quinoxaline] | > 10 | < 10 | –
Cc1cn2c(n1)c(N1CCN(C)CC1)nc1cc(Cl)ccc12 [Example 11, 7-Chloro-2-methyl-4-(4-methylpiperazin-1-yl)imidazo[1,2-a]quinoxaline] | > 10 | < 10 | –
Cc1ccc2nc(N3CCNCC3)n3nc(C)nc3c2c1 [Example 100, 2,9-Dimethyl-5-(piperazin-1-yl)-[1,2,4]triazolo[1,5-c]quinazoline] | > 10 | > 10 | –
CN1CC=C(c2nc3ccc(Cl)cc3n3cnnc23)CC1 [Example 2, 8-Chloro-4-(1-methyl-1,2,3,6-tetrahydropyridin-4-yl)-[1,2,4]triazolo[4,3-a]quinoxaline] | > 10 | < 10 | –
CN1CCN(c2nc3cc(C(F)(F)F)ccc3n3cnnc23)CC1 [Example 25, 4-(4-methylpiperazin-1-yl)-7-(trifluoromethyl)-[1,2,4]triazolo[4,3-a]quinoxaline] | > 10 | < 10 | –
Clc1ccc2nc(N3CCN(C4CC4)CC3)c3nncn3c2c1 [Example 64, 8-chloro-4-(4-cyclopropylpiperazin-1-yl)-[1,2,4]triazolo[4,3-a]quinoxaline] | > 10 | < 10 | –

Continued, in another order:

EC50 (human H1) [µM] | EC50 (human H4; [1]) [µM] | SMILES | EC50 (human H4) [µM]
> 10 | < 10 | Cc1nc2c(N3CCNCC3)nc3ccc(Cl)cc3n2n1 [Example 164, 8-chloro-2-methyl-4-(piperazin-1-yl)-[1,2,4]triazolo[1,5-a]quinoxaline] | –
> 10 | > 10 | CC(C)Nc1ccc2nc(N3CCN(C)CC3)c3nncn3c2c1 [Example 176, N-isopropyl-4-(4-methylpiperazin-1-yl)-[1,2,4]triazolo[4,3-a]quinoxalin-8-amine] | –
> 10 | < 10 | Cc1nc2c3cc(Cl)c(C(F)(F)F)cc3nc(N3CCN(C)CC3)n2n1 [Example 131, 9-chloro-2-methyl-5-(4-methylpiperazin-1-yl)-8-(trifluoromethyl)-[1,2,4]triazolo[1,5-c]quinazoline hydrochloride] | –
< 10 | < 10 | Clc1ccc2nc(N3CCNCC3)c3nocc3c2c1 [Example 167, 8-Chloro-4-(piperazin-1-yl)isoxazolo[3,4-c]quinoline] | –
< 10 | < 10 | Cc1nc2c(N3CCNCC3)nc3cc(F)c(F)cc3c2o1 [Example 146, 7,8-difluoro-2-methyl-4-(piperazin-1-yl)oxazolo[4,5-c]quinoline] | –
> 10 | < 10 | Fc1cc2nc(N3CCNCC3)c3nnnn3c2cc1Cl [Example 188, 8-chloro-7-fluoro-4-(piperazin-1-yl)tetrazolo[1,5-a]quinoxaline] | –
> 10 | < 10 | CN1CCN(c2nc3cc(C(F)(F)F)ccc3c3conc23)CC1 [Example 220, 4-(4-Methylpiperazinyl)-7-(trifluoromethyl)isoxazolo[3,4-c]quinoline] | –
> 10 | < 10 | CN1CCN(c2nc3cc(Br)ccc3n3nnnc23)CC1 [Example 195, 7-bromo-4-(4-methylpiperazin-1-yl)tetrazolo[1,5-a]quinoxaline] | –
< 10 | < 10 | CN1CCN(c2nc3cc(Cl)ccc3c3cccnc23)CC1 [Example 249, 8-chloro-5-(4-methylpiperazin-1-yl)benzo[f][1,7]naphthyridine] | –
> 10 | < 10 | Cc1nc2c3cc(Cl)c(C(F)(F)F)cc3nc(N3CCNCC3)n2n1 [Example 132, 9-chloro-2-methyl-5-(piperazin-1-yl)-8-(trifluoromethyl)-[1,2,4]triazolo[1,5-c]quinazoline hydrochloride] | –
